Converted amounts (≈) assume the structure as drawn. “And” between values parts separate entries of the source, which are not always exact repeats. Equal entries are not always repeated. Where two headings read alike, the source gives them in different places.
How the values were obtained:
[1] = test system: T cells; assay: PHA-induced T cell proliferation, wilforonide (924); assay type: cell-based, human; settings: for Mean cpm: control 42.0
Source text: The molecular groups responsible for the immune suppressive function of these compounds are unknown, however, the core structure of diterpenoids which may be related to their activity consists of an α-β-unsaturated 5 element lactone which can be identified by Kedde reagents. HPLC was used to fractionate the ethyl acetate extract of TwHF and the Kedde reagents were employed to trace the fractions. Then, the effect of selected fractions on the in vitro IL-2 production and [^3 H]-thymidine incorporation by PHA-activated T cells was determined. Fractions that inhibit these T cell functions were selected and the chromatographic pattern was identified with HPLC. One fraction was further purified with HPLC and crystallized repeatedly; a pure, crystallized compound was obtained and designated "924".
[^3 H]-thymidine was added for the last 14 hours of culture. Each concentration was run in quadruplicate (4 times) and the results for each concentration averaged to provide a mean. The mean cpm×10^3 values were combined and expressed as a percent of T cell inhibition.
or absence of the indicated concentrations of wilforonide for 3 days.
[^3 H]-Thymidine was added for the last 14 hours. Data are from 4
independent experiments.

[2] = test system: IL-2 production by T cells; assay: PHA-induced IL-2 production, wilforonide (924); assay type: cell-based, human; settings: for IL-2, mean: control 21.395
Procedure: The effects of wilforonide on IL-2 production was also examined. […] Cell-free supernatants were diluted 1 to 80 and the IL-2 content assayed with CTLL-2 cells.

[3] = test system: IL-2R; assay: IL-2R expression by PHA-activated T cells, 924; assay type: cell-based, human
[4] = Viability of PHA-stimulated T cells, 924; assay type: cell-based, human; settings: t cells; 1,000 ng/ml; 0 ng/ml=22% of control; FIG. 20D; read-out: Cell viability, % of control
[5] = test system: PHA-stimulated T cells; assay: Viability of PHA-stimulated T cells, 924; assay type: cell-based, human
[6] = test system: T cells; assay: Antigen (SK)-induced T cell proliferation, wilforonide; assay type: cell-based, human; settings: for IC50: 120 h, read-out: ID50, antigen-induced T cell proliferation; for IC50 / inhibition at 0.01 µg/mL: 5 days
Procedure: The cells were allowed to culture for five days. The cultures were pulsed with [^3 H]-thymidine for the last 24 hours of culture. […] ID50 were calculated based on the regression formula by using the fx-3600 calculator. T cells cultured with SK or SK+IL-2 or SK+PMA gave cpm of 1.87×10^3, 4.99×10^3 and 6.67×10^3, respectively.
*T cells were cultured with or without SK(1 mg/ml) or SK plus IL2(50
μ/ml) or SK plus PMA(.2 ng/ml) in the presence or absence of indicated
concentrations of wilforonide for 5 days. Cultures were pulsed with
[^3 H]-thymidine for the last 24 hours. Data represent the mean of th
experiments. ID50 were calculated based on the regression formula by
using the fx3600 calculator. T cells cultured with SK or SL + IL2 or SK +

[7] = Solubility of 924; assay type: physicochemical
Procedure: The dried woody skinned part of the root of TwHF was extracted with ethanol. The solution was concentrated at reduced pressure, and the residue was dissolved in ethyl acetate. This solution was passed through Al2 O3 with ethanol as an eluent. The eluate was evaporated and the residue chromatographed on silica gel with chloroform, chloroform-ether and ethyl acetate as successive eluent. The fractions eluted with chloroform-ether were purified on a preparative HPLC column packed with Nova-Pak C18 and equipped with a 214 detector. Methanol-water was the mobile phase. A fraction having positive reaction to Kedde reagent was collected and extracted with chloroform. The chloroform solution was evaporated to dryness and the residue crystallized in dichloromethane-hexane to yield 924.

[8] = test system: T cells; assay: Antigen (SK)-induced T cell proliferation, wilforonide; assay type: cell-based; settings: Homo sapiens, read-out: % inhibition of [3H]-thymidine incorporation

Which results are given for `C[C@]12CCC3=C(COC3=O)[C@@H]1CCC(=O)C2` (relative stereo) [Wilforonide, naphtho-[1,2-c] furan-3,7(1H,5H)-dione, 4,5a,6,8,9,9a-hexahydro-5a-methyl(5aR-trans)-[104331-87-5]]?
cpm, individual experiments 1-4 ([1]; 10 ng/ml, PHA 0.5 μg/ml, 3 days): 23.5 cpm × 10^3 and 37.1 cpm × 10^3 and 57.5 cpm × 10^3 and 36.3 cpm × 10^3; Mean cpm ([1]; 10 ng/ml): 38.6 cpm × 10^3; cpm, individual experiments 1-4 ([1]; 50 ng/ml): 30.2 cpm × 10^3 and 35.3 cpm × 10^3 and 57.0 cpm × 10^3 and 44.8 cpm × 10^3; Mean cpm ([1]; 50 ng/ml): 41.8 cpm × 10^3; cpm, individual experiments 1-4 ([1]; 100 ng/ml): 13.0 cpm × 10^3 and 37.6 cpm × 10^3 and 55.2 cpm × 10^3 and 26.7 cpm × 10^3; Mean cpm ([1]; 100 ng/ml): 33.1 cpm × 10^3; cpm, individual experiments 1-4 ([1]; 200 ng/ml): 6.8 cpm × 10^3 and 33.9 cpm × 10^3 and 56.5 cpm × 10^3 and 26.4 cpm × 10^3; Mean cpm ([1]; 200 ng/ml): 30.9 cpm × 10^3; cpm, individual experiments 1-4 ([1]; 500 ng/ml): 0.3 cpm × 10^3 and 19.7 cpm × 10^3 and 30.9 cpm × 10^3 and 11.3 cpm × 10^3; Mean cpm ([1]; 500 ng/ml): 15.6 cpm × 10^3; T cell proliferation ([1]; 1,000 ng/ml, FIG. 20C): no cell proliferation was evident; inhibition at 0.01 µg/mL ([1]; Homo sapiens, T-cell, 72 h, 10 ng/ml, PHA 0.5 μg/ml, 3 days): 8.09%; IC50 ([1]; Homo sapiens, T-cell, 72 h, PHA 0.5 μg/ml, 3 days, read-out: ID50, PHA-induced T cell proliferation): 0.391 µg/mL (≈ 1.78 µM); inhibition at 0.001 µg/mL ([1]; Homo sapiens, T-cell, 1 ng/ml, PHA, read-out: Degree of inhibition of T cell proliferation): 14.6%; inhibition at 0.05 µg/mL ([1]; Homo sapiens, T-cell, 50 ng/ml, PHA): 0.48%; inhibition at 0.1 µg/mL ([1]; Homo sapiens, T-cell, 100 ng/ml, PHA, read-out: % inhibition): 21.2%; inhibition at 0.1 µg/mL ([1]; Homo sapiens, T-cell, 100 ng/ml, PHA, read-out: Degree of inhibition of T cell proliferation): 54.2%; inhibition at 0.2 µg/mL ([1]; Homo sapiens, T-cell, 200 ng/ml, PHA): 26.4%; inhibition at 0.5 µg/mL ([1]; Homo sapiens, T-cell, 500 ng/ml, PHA): 62.9%; IL-2, individual experiments 1-4 ([2]; 10 ng/ml, PHA 1 μg/ml, overnight): 1.628 unit/ml and 20.723 unit/ml and 27.374 unit/ml and 3.385 unit/ml; IL-2, mean ([2]; 10 ng/ml): 13.278 unit/ml; IL-2, individual experiments 1-4 ([2]; 50 ng/ml): 1.664 unit/ml and 26.983 unit/ml and 4.509 unit/ml and 6.042 unit/ml; IL-2, mean ([2]; 50 ng/ml): 9.795 unit/ml; IL-2, individual experiments 1-4 ([2]; 100 ng/ml): 0.800 unit/ml and 11.160 unit/ml and 10.170 unit/ml and 4.982 unit/ml; IL-2, mean ([2]; 100 ng/ml): 6.803 unit/ml; IL-2, individual experiments 1-4 ([2]; 200 ng/ml): 0.850 unit/ml and 10.301 unit/ml and 8.502 unit/ml and 1.773 unit/ml; IL-2, mean ([2]; 200 ng/ml): 5.357 unit/ml; inhibition at 0.01 µg/mL ([2]; Homo sapiens, T-cell, 10 ng/ml): 37.9%; inhibition at 0.05 µg/mL ([2]; Homo sapiens, T-cell, 50 ng/ml): 54.2%; inhibition at 0.1 µg/mL ([2]; Homo sapiens, T-cell, 100 ng/ml): 68.2%; inhibition at 0.2 µg/mL ([2]; Homo sapiens, T-cell, 200 ng/ml): 75%; IC50 ([2]; Homo sapiens, T-cell, PHA 1 μg/ml, overnight, read-out: ID50, PHA-induced IL-2 production): 0.0421 µg/mL (≈ 0.191 µM); IL-2R expression ([3]; 500 ng/ml): did not affect the IL-2R expression; IL-2R expression ([3]; PHA-activated T cells): no effect; viability [4]: 35%; Viability of PHA-stimulated T cells ([5]; 1 ng/ml up to 1000 ng/ml): did not affect the viability of PHA-stimulated T cells; Cell viability ([5]; 1 to 500 ng/ml): did not differ significantly in terms of cell viability; in vitro ID50/LD50 of T cell proliferation ([5]; t cells): more than 10; IC50 ([6]; Homo sapiens, T-cell, SK + IL-2 (50 u/ml)): 0.476 µg/mL; IC50 ([6]; Homo sapiens, T-cell, SK + PMA (0.2 ng/ml)): 0.613 µg/mL; IC50 ([6]; Homo sapiens, T-cell, SK): 0.127 µg/mL (≈ 0.577 µM); inhibition at 0.01 µg/mL ([6]; Homo sapiens, T-cell, SK + IL-2, 10 ng/ml, read-out: % inhibition of [3H]-thymidine incorporation): 19.6%; inhibition at 0.5 µg/mL ([6]; Homo sapiens, T-cell, SK + IL-2, 500 ng/ml, read-out: % inhibition of [3H]-thymidine incorporation): 61.7%; inhibition at 0.01 µg/mL ([6]; Homo sapiens, T-cell, SK + PMA, 10 ng/ml, read-out: % inhibition of [3H]-thymidine incorporation): 22.7%; inhibition at 0.05 µg/mL ([6]; Homo sapiens, T-cell, SK + PMA, 50 ng/ml, read-out: % inhibition of [3H]-thymidine incorporation): 17.7%; inhibition at 0.5 µg/mL ([6]; Homo sapiens, T-cell, SK + PMA, 500 ng/ml, read-out: % inhibition of [3H]-thymidine incorporation): 53.3%; inhibition at 0.01 µg/mL ([6]; Homo sapiens, T-cell, SK, 10 ng/ml, read-out: % inhibition of [3H]-thymidine incorporation): 42.1%; Inhibition of response to SK on adding IL2 or PMA ([6]; low concentrations): partially overcome by adding IL2 or PMA; Solubility [7]: soluble in ethanol, and ethanol and chloroform; inhibition at 0.05 µg/mL ([8]; SK + IL-2, 50 ng/ml): 12.4%; inhibition at 0.1 µg/mL ([8]; SK + IL-2, 100 ng/ml): 14.5%; inhibition at 1 µg/mL ([8]; SK + IL-2, 1,000 ng/ml): 86.2%; inhibition at 0.1 µg/mL ([8]; SK + PMA, 100 ng/ml): 20.3%; inhibition at 1 µg/mL ([8]; SK + PMA, 1,000 ng/ml): 65.4%; inhibition at 0.05 µg/mL ([8]; SK, 50 ng/ml): 44.5%; inhibition at 0.1 µg/mL ([8]; SK, 100 ng/ml): 49.1%; inhibition at 0.5 µg/mL ([8]; SK, 500 ng/ml): 75.2%; inhibition at 1 µg/mL ([8]; SK, 1,000 ng/ml): 84.2%

Source: patent publication US5846742A, “Selecting substances for treating glucocorticoid-mediated inflammation or immune diseases using Tripterygium wilfordii Hook F extracts” (Board of Regents, The University of Texas System, priority 1997, dated 1998)
